Structures are written as SMILES. Entries after “also recorded” stand apart in the source; their conditions may differ.

One series concerns IRF3. The experiment in a line: IRF3 nuclear translocation (in situ immunofluorescence) in primary human endothelial cells after dsDNA or hCMV. Format: cell-based. The note with it: primary human endothelial cells (HUVEC) supplemented with the substance, then DNA treatment or hCMV infection. The source says:
(§1) Extracellular Ado supplementation enhances anti-viral innate responses: To date, all loss-of function mutations in ADA2 that cause PAN/DADA2 vasculitis either reduce protein levels of ADA2 or dramatically impair enzymatic activity of ADA2, such that loss of enzymatic activity in serum is the defining characteristic of the disease. Loss of ADA2 activity in serum alters catabolism of Ado/dAdo released into circulation from cells and tissues, or produced by dephosphorylation of extracellular ATP/dATP. Ado and dAdo are profoundly immuno-modulatory nucleosides, exerting many effects on cells. Vascular endothelial cells metabolize Ado/dAdo in blood, yet excessive or dysregulated Ado/dAdo signaling has not been examined in endothelium. To examine the effects of Ado on vascular endothelial cells, HUVEC were supplemented with extracellular Ado 24 h prior to treatment with DNA or infection with hCMV.
Cells: Primary human cells were obtained from Lonza as single donor aliquots. Wherever possible, both male and female donors were analyzed. Human umbilical vascular endothelial cells (HUVEC) and Human aortic endothelial cells (HAEC) were maintained in EGM-2 Bulletkit growth media (Lonza) supplemented with 2% HI-FBS. […]
IRF3 immunostaining: Cells were fixed with 4% PFA for 20 min, washed 3 times with 1×PBS, permeabilized with 0.2% Triton X-100 for 10 min, and blocked with 10% FBS for 30 min Cells were incubated with IRF-3 primary antibody (clone FL-425, Santa Cruz) at 1:200 dilution for 30 min and washed 3 times with 1×PBS. […] Images were acquired at 10× magnification on ImageXpress Micro (Molecular Devices), and images were analyzed using the enhanced translocation module of MetaXpress (Molecular Devices). Individual cells were scored as positive for nuclear translocation if >70% of IRF3 fluorescence was spatially correlated with DAPI fluorescence. […]

Series [1] concerns IFNβ. The experiment in a line: IFNβ induction (TaqMan qRT-PCR) in primary human endothelial cells after dsDNA or hCMV. Format: cell-based. The note with it: for IFNβ induction: HUVEC supplemented with the substance, then DNA treatment or hCMV infection.
Source text: as §1
Cells: Primary human cells were obtained from Lonza as single donor aliquots. Wherever possible, both male and female donors were analyzed. Human umbilical vascular endothelial cells (HUVEC) and Human aortic endothelial cells (HAEC) were maintained in EGM-2 Bulletkit growth media (Lonza) supplemented with 2% HI-FBS. Human dermal microvascular endothelial cells (HDMVEC), human brain microvascular endothelial cells (HBMVEC), and human kidney microvascular endothelial cells (HKMVEC) were maintained in EBM-2MV Bulletkit growth media (Lonza) supplemented with 5% HI-FBS. Normal human bronchial […] cells (NHBE) were maintained in BEGM Bulletkit growth media (Lonza). U937 were maintained in RPMI supplemented with 5% HI-FBS. For activation of cell-intrinsic innate immune responses through the STING-IFN-I pathway, all cells were stimulated for 3 h with poly dA:dT or VACV70 dsDNA (200-1000 ng/mL) using LyoVec as a transfection reagent (Invivogen), or infected for 3 h with hCMV MOLD at MOI=1.
Real-time PCR: Total RNA was extracted using the Quick-RNA MiniPrep Plus kit (Zymo Research). Total RNA (200-1000 ng) was used to synthesize complementary DNA using the qScript cDNA synthesis kit (Quanta). Samples were diluted 10-fold and gene expression was analyzed by real-time quantitative PCR on a CFX96 Touch Detection System (Bio-Rad) using FastStart SYBR Green Master Mix (Roche) or TaqMan Universal PCR Master Mix (ThermoFisher Scientific). […]
(In general: In qPCR the cycle at which signal appears reflects the starting amount.)

The test system of another series is vascular endothelium. The following applies: references 22-24; cited from earlier work.
Another series deals with STING. As to the kind of experiment: STING mRNA expression (TaqMan qRT-PCR) in HUVEC. Format: cell-based, human. The following applies: supplemented cells, resting and stimulated. The method, then:
(§2) Real-time PCR: Total RNA was extracted using the Quick-RNA MiniPrep Plus kit (Zymo Research). Total RNA (200-1000 ng) was used to synthesize complementary DNA using the qScript cDNA synthesis kit (Quanta). Samples were diluted 10-fold and gene expression was analyzed by real-time quantitative PCR on a CFX96 Touch Detection System (Bio-Rad) using FastStart SYBR Green Master Mix (Roche) or TaqMan Universal PCR Master Mix (ThermoFisher Scientific).

The test system of series [2] is pro-inflammatory and anti-viral genes. The experiment in a line: Pro-inflammatory cytokine and innate immune gene expression in endothelial cells (qRT-PCR, RNAseq). Format: cell-based, human. The following applies: for pro-inflammatory cytokine production: after viral infection, extracellular supplementation; for expression of IL-6 and TNF cytokines: endothelial cells after supplementation. The method, then:
as §2
RNAseq: Total RNA was extracted from 10^7 cultured cells using the Quick-RNA MiniPrep Plus kit (Zymo Research). RNA quality was assessed using an Agilent Tapestation, such that all samples should produce RIN^e scores above 9.0. For each sample, 500-1000 ng of total RNA was then prepared into an mRNA library using the Truseq Stranded mRNA Library Prep Kit (Illumina). Resulting libraries were then pooled at equimolar concentrations using Quant-iT PicoGreen dsDNA Assay Kit (Life Technologies) and were deep sequenced on an Illumina 2500 in Rapid Run Mode, producing between 10M and 90M single-end reads with lengths of 50 nucleotides per sample.
The single-end reads that passed Illumina filters were filtered for reads aligning to tRNA, rRNA, adapter sequences, and spike-in controls. The reads were then aligned to UCSC hg19 reference genome using TopHat (v 1.4.1). DUST scores were calculated with PRINSEQ Lite (v 0.20.3) and low-complexity reads (DUST>4) were removed from the BAM files. The alignment results were parsed via the SAMtools to generate SAM files. Read counts to each genomic feature were obtained with the htseq-count program (v 0.6.0) using the “union” option. After removing absent features (zero counts in all samples), the raw counts were then imported to R/Bioconductor package DESeq2 [5] to identify differentially expressed genes among samples. DESeq2 normalizes counts by dividing each column of the count table (samples) by the size factor of this column. The size factor is calculated by dividing the samples by geometric means of the genes. This brings the count values to a common scale suitable for comparison. P-values for differential expression are calculated using binomial test for differences between the base means of two conditions. These p-values are then adjusted for multiple test correction using Benjamin Hochberg algorithm to control the false discovery rate. […] Cluster analyses including principal component analysis (PCA) and hierarchical clustering were performed using standard algorithms and metrics. Hierarchical clustering was performed using complete linkage with Euclidean metric.

In series [3] the test system is IFNβ. The experiment in a line: IFNβ induction in monocytes. Format: cell-based, human. As to the method: as §2
Lentivirus production for shRNA and CRISPR: For shRNA experiments, sequences were selected from the Sigma mission 2.0 library. For CRISPR experiments, sgRNA sequences selected using the CHOPCHOP algorithm and were cloned into the lentiCRISPrv2 vector […]. Plasmids were transformed and amplified in Dh5α competent E. Coli, and purified using the EndoFree Plasmid Maxi kit (QIAGEN). For lentivirus preparation, 293T cells seeded in 6-well plates and transfected with pLKO.1 or lentiCRIPRv2 plasmids and MISSION Lentiviral Packaging Mix (Sigma), using JetPrime transfection reagent (Polyplus). After 24 h, media was changed to full growth media supplemented with 30% FBS. After 48 h, lentiviral supernatants were collected and HUVEC or U937 cells were spin-infected by centrifugation for 1 h at 37 C at 2000 rpm. Cells were selected in 3 ug/mL puromycin media for 2 weeks.

For series [4], the system named is IFNβ. The experiment in a line: IFNβ induction (TaqMan qRT-PCR) in primary human endothelial cells after dsDNA or hCMV. Format: cell-based. The note with it: for hCMV induced IFNβ: pre-treatment, siControl and siADA2-treated endothelial cells (HUVEC, HBMVEC, HDMVEC).

As to `CCNC(=O)[C@H]1O[C@@H](n2cnc3c(N)ncnc32)[C@H](O)[C@@H]1O` [NECA, 5′-N-ethylcarboxamidoadenosine], the “IRF3 activation / nuclear translocation” value in the series with IRF3 is given as “did not enhance; also recorded: no effect; also recorded: does not significantly affect”. Moreover, the IFNβ induction entry in the series on IFNβ [1] was “did not enhance; also recorded: does not significantly affect”.

`Nc1ncnc2c1ncn2[C@H]1C[C@H](O)[C@@H](CO)O1` [dAdo, 2′-deoxyadenosine]: the “uptake of circulating nucleoside by the vascular endothelium” value in the series with vascular endothelium was “within a few seconds”. For the same compound, in the series on STING, the “STING mRNA levels / expression” value is reported as “up-regulated”. Further, in the series on IRF3, the “IRF3 activation / nuclear translocation” value is “significantly enhances; also recorded: augmented”. Besides, the pro-inflammatory cytokine production result in series [2] is “enhances”. Moreover, the IFNβ induction result is listed as “significantly enhances; also recorded: augmented” in the series on IFNβ [1] and “enhanced” in the series with IFNβ [3].

For `OC[C@H]1O[C@@H](n2cnc3c2NC=NC[C@H]3O)C[C@@H]1O` [pentostatin], the “augmentation of IRF3 and IFNβ responses by extracellular Ado and dAdo” value with IFNβ [4] (in the presence of pentostatin to inhibit ADA2, endothelial cells) is listed as “enhanced”.

Turning to `OC[C@H]1O[C@@H](n2cnc3c(O)ncnc32)C[C@@H]1O` [dIno, deoxyinosine], the “STING mRNA levels / expression” value in the series on STING was “up-regulated”. The “IFNβ mRNA induction” value in the series on IFNβ [1] (prolonged supplementation of HUVEC, dsDNA treatment) is given as “specifically augmented”.

With `Nc1ncnc2c1ncn2[C@@H]1O[C@H](CO)[C@@H](O)[C@H]1O` [Ado, adenosine], the “uptake of circulating nucleoside by the vascular endothelium” value in the series with vascular endothelium was “within a few seconds”. In addition, the “IRF3 activation / nuclear translocation” value with IRF3 is reported as “significantly enhanced; also recorded: augmented; also recorded: enhances”. Also, the pro-inflammatory cytokine production entry in series [2] is reported as “enhances”. In addition, the “expression of IL-6 and TNF cytokines” value in series [2] was “enhanced expression”; in series [2] (listed as adenosine) it was “enhances”. For the same compound, the values for the IFNβ induction result in the series with IFNβ [1] and in the series on IFNβ [1] (listed as adenosine) were “significantly enhanced; also recorded: augmented; also recorded: enhances” and “enhances”, respectively.

With `OCCN(CCO)c1nc(N2CCCCC2)c2nc(N(CCO)CCO)nc(N3CCCCC3)c2n1` [dipyridamole], the IFNβ levels result in the series on IFNβ [4] (TREX1-depleted cells) is “dampened”. The “dIno-augmented IFNβ” value in the series with IFNβ [4] (cells supplemented with dIno, sensitivity to DPM) is “sensitive”. Also, the “hCMV induced IFNβ” value with IFNβ [4] is “significantly reduced; also recorded: dose-dependent decrease”; in the series with IFNβ [4] (listed as Dipyridamole), “reduced”. Also, in series [2] (ADA2-depleted and dAdo-supplemented cells, whole-transcriptome RNAseq), the “expression of pro-inflammatory and anti-viral genes” value was “broadly inhibited”. In series [2] (ADA2/CECR1-depleted cells), the cytokine production entry was “reduces”.
